In patent publication US9693982B2, “Composition for amelioration of hypoalbuminemia” (OTSUKA PHARMACEUTICAL FACTORY, INC., priority 2010, dated 2017):

Tested on: albumin mRNA
Assay: Albumin mRNA expression of cultured human hepatocytes (Experiment 1, real time RT-PCR)
Type: cell-based
Details: for Expression level of albumin mRNA (mean ± SD): 24 hours after addition, ratio based on HPRT1 mRNA (regarded as 1), human hepatocytes Lot 100, triplicate; for Effect on albumin mRNA expression level (in words): human hepatocytes, 20 mM, 60 mM
Description: In this test, human primary cultured hepatocytes were cultured by each test solution to check a change of albumin mRNA expressional potency and a change of secretion level of albumin. The test was performed as follows.
Albumin mRNA and HPRT1 mRNA were measured. The nucleotide sequences of albumin and HPRT1 are registered in the GenBank as follows and each nucleotide sequence follows the sequence registered.
Note that, HPRT1, which is a house keeping gene serving as a control, was measured in the same test. The sequences of primers and probes used in measurement of albumin are made public in Nishimura, M., Yoshitsugu, H., Yokoi, T., Tateno, C., Kataoka, M., Horie, T., Yoshizato, K. and Naito, S.: Evaluation of mRNA expression of human drug-metabolizing enzymes and transporters in chimeric mouse with humanized liver. Xenobiotica, 35: 877-890 (2005). Furthermore, the sequences of primers and probes used in measurement of HPRT1 are made public in Nishimura, M., Naito, S. and Yokoi, T.: Tissue-specific mRNA expression profiles of human nuclear receptor subfamilies. Drug Metab. Pharmacokinet., 19: 135-149 (2004).
Furthermore, mRNA was quantified by use of the primer pairs and probe represented by individual sequences (the position of initiation codon follows the each nucleotide sequence registered) shown in the following Table 1 and in accordance with RT-PCR (Real-time quantitative reverse transcription-polymerase reaction). Each of the primers and probe was prepared by an automatic DNA synthesizer.
As the test solution of the Livact composition, a Livact composition was dissolved such that the concentrations of Ile, Leu, and Val became 13.8 mM, 27.7 mM, and 18.5 mM, respectively after blending (60 mM as the concentration of the Livact composition test solution). Note that, in the dissolution procedure, a Livact composition was dissolved in Buffer A and then a medium was added in an amount 1/10 as low as that of Buffer A.
As an Ile, Leu or Val solution, Ile, Leu or Val was dissolved so as to have a concentration of 60 mM. Note that, in the dissolution procedure, Ile, Leu or Val was dissolved in Buffer A and then a medium was added in an amount 1/10 as low as that of Buffer A.
The Livact composition test solution prepared in Section (2-3) and Ile, Leu or Val solution prepared in Section (2-4) were diluted 3 fold with Buffer B to prepare a 20 mM solution.
According to a method of Nishimura et al. (Nishimura, M., Yoshitsugu, H., Naito, S. and Hiraoka, I.: Evaluation of gene induction of drug-metabolizing enzymes and transporters in primary culture of human hepatocytes using high-sensitivity real-time reverse transcription PCR. Yakugaku Zasshi, 122: 339-361 (2002)), 1×10^5 cells/400 μL was dispensed in each well of a 24 well plate and cultured in a CO2 incubator. After 3 hours, medium exchange was performed. Further after 21 hours (24 hours after inoculation), medium exchange was performed. Thereafter, the medium was exchanged every 24 hours. Note that, the amount of liquid medium to be exchanged was set at 400 μL/well. Furthermore, exchange to each test solution was performed at the after 48 hours at which medium exchange was performed.
After human hepatocytes (1×10^5 viable cells/0.4 mL/well) were inoculated, medium exchange was performed 3 hours and 24 hours after inoculation. Note that, the viability at the inoculating time was 90.4% (Lot 100). Then, 48 hours after inoculation, a test substance was added and 24 hours after addition of the test substance was initiated, Total RNA was extracted (using Rneasy Mini Kit). Quantification of mRNA of albumin and HPRT1 was performed by real time RT-PCR. Note that, HPRT1, which is a house keeping gene, was used as an internal standard.
After the medium was suctioned, Total RNA was extracted by use of QIA shredder and Rneasy Mini Kit. Now, a preparation method using the Kit will be described below. […]

| Structure (SMILES) | Expression level of albumin mRNA (mean ± SD) (20 mM total test substance) | Expression level of albumin mRNA (mean ± SD) (60 mM total test substance) | Effect on albumin mRNA expression level (in words) |
| --- | --- | --- | --- |
| CC[C@H](C)[C@H](N)C(=O)O [Ile, Isoleucine] | 174 ± 33 | 222 ± 27 | increases in an additive manner |
| CC(C)[C@H](N)C(=O)O [Val, Valine, reference compound] | 127 ± 17 | 118 ± 10 | – |
| CC(C)C[C@H](N)C(=O)O [Leu, Leucine] | 215 ± 63 | 255 ± 53 | increases in an additive manner |
